Experimental data from US20030190368A1, “METHODS OF DIAGNOSIS AND TRIAGE USING CELL ACTIVATION MEASURES” (priority 1998, published 2003).
“Also recorded” adds a separate entry of the source.

Legend:
[1] = system: rats subjected to SAO shock; experiment: Splanchnic arterial occlusion (SAO) shock with Futhan pretreatment; format: in vivo, rat
Source text: Rats randomly selected were weighed and anesthetized, and arterial and venous catheters were inserted which were used for blood pressure measurements and anesthesia, respectively. […] At the termination of the experiments arterial blood was drawn for determination of plasma peroxide concentration using a peroxide electrode measurement technique.
Male Wistar rats (250-320 g) were randomly divided into SAO shock (n=7) and SAO shock sham groups (n=6). Animals were cannulated via the femoral arteries and vein under general anesthesia using pentobarbital (50 mg/kg i.m.). No heparin was injected other than that needed to ensure open catheter lines (10U/ml Plasma-Lyte). One femoral artery was connected up to monitor continuous mean arterial pressure (MAP), while the other was used for the collection of blood samples. […] MAP and heart rate were recorded.

rats = experiment: Bolus injection of pancreatic homogenate (mock SAO shock); format: in vivo
Method: A bolus injection of incubated pancreatic homogenate was tested for its ability to lead to circulatory shock in the rat. The ability of Futhan pretreatment to mitigate shock induced in this manner was also tested. A mock SAO shock protocol was repeated as previously described, with either 60 min Futhan or saline pretreatment and a 2 ml bolus injection of either pancreatic homogenate or low-molecular weight pancreatic homogenate injected in lieu of arterial clamping.
The SAO shock experiments were repeated with the bolus injection of pancreatic homogenate in an effort to simulate the “unclamping” of the arteries and liberation of pancreatic components into the circulation instead of the actual ischemia/reperfusion of the splanchnic region. The low-molecular weight (2 ml) as well whole homogenate (2 ml) were tested for their ability to induce hypotension and cause circulatory shock. The ability of Futhan to counter the effects of the injection of pancreatic homogenate was also tested as in the SAO shock protocol. At the termination of these experiments arterial blood was drawn for the determination of plasma peroxide concentration using the peroxide electrode measurement technique.

[2] = pH and solubility of Futhan; format: physicochemical
Method: The reasons for the ineffectiveness of Futhan in ameliorating SAO shock in initial experiments appeared to be due to the pH of Futhan in solution, which is approximately 3.5 at the concentration of I mg/ml in 5% glucose-deionized (DI) water as per the manufacturer's instructions. Under the established protocol, approximately 2 ml of this solution were injected at the rate of 0.05 ml every 5 minutes into an approximate rat blood volume of 20 ml. In sham-shocked animals (not reported here) the buffering capacity of blood is able to absorb any perturbations in pH. In shocked animals, however, the pH buffering capacity, especially of the pancreas and small intestine, is severely compromised. Thus, the injection of Futhan would contribute to irreversible acidosis. […] Although the animals recovered from these transient depressions of MAP, Futhan injected animals typically expressed a lower MAP than the saline-injected group. This difference was not significant.

[3] = system: isolated naive human neutrophils; experiment: Pseudopod formation test: protease inhibitors against pancreatic homogenate-induced neutrophil activation; format: cell-based
Method: For the pseudopod assay, venous blood is collected in heparinized tubes from healthy human volunteers and put on ice. It is important that heparin and not EDTA ([…]) be used as an anticoagulant, as the calcium-chelating properties of EDTA can affect neutrophil activation. […] Other chemicals for the Krebs-Henseleit buffer are from Fisher Scientific, Fair Lawn, N.J. The resuspended cells are then gently layered onto 2.5 ml of a 55% isotonic Percoll (Sigmal Chemical Company) solution and 2.5 ml of a 74% isotonic Percoll solution in deionized water. The suspension is centrifuged for 15 minutes at 600 G and the middle granulocyte layer is removed and resuspended in PBS to achieve a concentration of 10^6 neutrophils/ml. 100 μl aliquots of suspended neutrophils are added to 100 μl of test plasma or activating agent. This mixture is mixed and then incubated for 10 minutes at 27° C. After incubation 100 μl of 3% glutaraldehyde (Fisher Scientific) is added to stop the reaction. 100 μl of crystal violet in phosphate (pH: 7.4) buffer is then added to stain leukocyte nuclei on wet mount preparations. Freely suspended neutrophils with pseudopodia are identified by their segmented nuclei and the presence of cytoplasmic granules. One hundred neutrophils are counted. Cells with pseudopod projection greater than about 1 um are considered positive.
Rat homogenate was collected as described in detail in Example 5. Briefly, male Wistar rats (250-350 gm) were housed in a controlled environment and maintained on a standard pellet diet for at least three days before initiation of experimental procedures. Animals were cannulated via the femoral arteries and vein under general anesthesia using pentobarbital (50 mg/kg i.m.). The rats were exsanguinated and the heart, liver, spleen, small intestine, and pancreas removed. The organs were immediately washed and cleaned in cold 0.25 M sucrose solution. Then, the cleaned organs were vigorously homogenized in Krebs-Henseleit solution ([…]). Aliquots were filtered by centrifugation at 500 G for 10 min. Pancreatic homogenates were incubated for 2.5 hours at 38° C., stirred frequently. Incubated pancreatic homogenate as well as controls were tested against naive human donor neutrophils for pseudopod formation as described in Example 2.
To determine whether or not neutrophil activation by pancreatic homogenate is protease dependent, the pseudopod formation test was repeated by preincubation of isolated neutrophils with various protease inhibitors (50 μl) for 10 minutes followed by addition of pancreas homogenate (50 μl) and further incubation for 10 minutes. […] All protease inhibitors were the gift of Dr. Tony E. Hugli of The Scripps Clinic and Research Institute, with the exception of Complete™, an all-purpose protease inhibitor purchased from Boehringer Mannheim, Indianapolis, Ind. One of the components of Complete™ is EDTA (ethylenediaminetetra-acetic acid), a standard anti-coagulant and divalent cation chelator.
To determine whether the protease inhibitors were acting on the pancreatic homogenate or the neutrophils themselves, a new set of neutrophil pseudopod experiments was carried out. […] Appropriate controls were recorded as well as a positive control (10^−7 M fMLP) to determine the washed cells' ability to respond to stimuli. Formyl-methionyl-leucyl-phenylalanine (fMLP) was obtained from Sigma Chemical Company, St. Louis, Mo.

CS(=O)(=O)O.CS(=O)(=O)O.N=C(N)Nc1ccc(C(=O)Oc2ccc3cc(C(=N)N)ccc3c2)cc1 [Futhan, 6-amidino-2-naphthyl p-guanidinobenzoate dimethanesulfonate]
MAP and survival time, small bolus regimen ([1]; 0.05 ml bolus every 5 minutes, 1, 3.3, 10, 20 mg Futhan/kg body wt, pretreatment 30 or 60 min): uniformly unable to restore MAP or increase survival times
blood pressure effect of Futhan injection ([1]; 0.05 ml doses): transient hypotension
mean arterial pressure after removal of arterial clamps ([1]; Futhan 3.3 mg/kg body wt/hour i.v. infusion pump, 60 min pretreatment, vs saline): significant reduction in the fall of blood pressure
survival / mortality after SAO shock ([1]; Futhan 3.3 mg/kg body wt/hour infusion, 60 min pretreatment, vs saline controls, dimethanesulfonate): significant increase in survival; also recorded: prevented mortality
circulating plasma peroxide after SAO shock ([1]; Futhan 3.3 mg/kg body wt/hour infusion, vs control animals): significantly lower levels of circulating peroxide production
plasma peroxide formation after SAO shock, small bolus regimen ([1]; initial experiments, bolus injections): ineffective
mortality after pancreatic homogenate injection in Futhan-pretreated rats (rats; 60 minute post-injection observation period, Futhan 3.3 mg/kg body wt/hr): None of the Futhan-treated group died
MAP after pancreatic homogenate injection in Futhan-pretreated rats (rats; Futhan 3.3 mg/kg body wt/hr): MAP returned to nearly initial values
blood pressure effect of Futhan infusion pretreatment (rats; infusion pump 3.3 mg/kg body wt/hr): depression of MAP
pH of Futhan in solution ([2]; I mg/ml in 5% glucose-deionized (DI) water): approximately 3.5
solubility ([2]; alcohol, rat serum, DMSO, balanced Tris (Trizma) buffer at physiologic pH): insoluble
percent neutrophil activation, Wash group ([3]; neutrophils incubated 10 min with Futhan 0.1 mg/ml, washed two times, then pancreatic homogenate 10 min): 53.5±31%
percent neutrophil pseudopod formation (activation) by rat pancreatic homogenate in presence of protease inhibitor ([3]; neutrophils preincubated 10 min with inhibitor (PMSF 1 mM; Complete 1 tablet/20 ml; Benzamidine 1150 μM; Futhan 0.1 mg/ml; aprotinin 20 μM), then homogenate 10 min, homogenate alone 85.1±11.5%): 30.3±11.8%
inhibition of pancreatic homogenate-induced neutrophil activation (in words) ([3]; pseudopod formation, rat pancreatic homogenate, dimethanesulfonate): abolished pancreatic homogenate-induced activation; also recorded: dose-dependent inhibition
percent neutrophil activation, Inhibitor group ([3]; washed neutrophils incubated with combined Futhan 0.1 mg/ml and pancreatic homogenate): 51.5±34%
